Measured values taken from ChEMBL document CHEMBL1201862, “PubChem BioAssay data set” (2004).
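Method: 48-hour compound exposure of cells in 96-well plates, five concentrations, linear interpolation of endpoints. GI50: concentration for 50% inhibition of growth.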 Calls of active or inactive are those of the source. No stated cut-off is given here; in the data, active = GI50 up to about 1.1 µM and inactive = higher.

Columns and labels:
Experiment in all cases: NCI tumour cell line growth inhibition, 48 h
UACC-257 = system: UACC-257
A498 = system: A498
SR = system: SR
HOP-18 = system: HOP-18
SK-MEL-2 = system: SK-MEL-2
EKVX = system: EKVX
SNB-19 = system: SNB-19
CAKI-1 = system: CAKI-1
ACHN = system: ACHN
UO-31 = system: UO-31
SK-OV-3 = system: SK-OV-3
SW-620 = system: SW-620
HT-29 = system: HT-29
HOP-92 = system: HOP-92
SNB-75 = system: SNB-75
OVCAR-5 = system: OVCAR-5
COLO 205 = system: COLO 205
XF498 = system: XF498
786-0 = system: 786-0
MDA-MB-435 = system: MDA-MB-435

Row | SMILES | GI50 (UACC-257) | GI50 (A498) | GI50 (SR) | GI50 (HOP-18) | GI50 (SK-MEL-2) | GI50 (EKVX) | GI50 (SNB-19) | GI50 (CAKI-1) | GI50 (ACHN) | GI50 (UO-31) | GI50 (SK-OV-3) | GI50 (SW-620) | GI50 (HT-29) | GI50 (HOP-92) | GI50 (SNB-75) | GI50 (OVCAR-5) | GI50 (COLO 205) | GI50 (XF498) | GI50 (786-0) | GI50 (MDA-MB-435)
1 | COc1cc(/C=C/C2=C(C#N)C(=O)OC2(C)C)ccc1O | > 100 µM (inactive) | > 100 µM (inactive) | 14.2 µM (inactive) | > 100 µM (inactive) | > 100 µM (inactive) | > 100 µM (inactive) | > 100 µM (inactive) | > 100 µM (inactive) | 34.2 µM (inactive) | 44.9 µM (inactive) | > 100 µM (inactive) | 35.3 µM (inactive) | 48.2 µM (inactive) | > 100 µM (inactive) | 82.8 µM (inactive) | > 100 µM (inactive) | 45.4 µM (inactive) | – | – | –
2 | O=C1C2Cc3ccccc3CN2C(=O)N1CN1CCCCC1 (stereo not drawn) | – | > 100 µM (inactive) | 97.5 µM (inactive) | – | > 100 µM (inactive) | – | > 100 µM (inactive) | > 100 µM (inactive) | > 100 µM (inactive) | > 100 µM (inactive) | – | 55.6 µM (inactive) | – | – | – | > 100 µM (inactive) | > 100 µM (inactive) | > 100 µM (inactive) | > 100 µM (inactive) | –
3 | Cc1c(N=NN(C)C)cc[n+]([O-])c1C | > 100 µM (inactive) | > 100 µM (inactive) | – | > 100 µM (inactive) | > 100 µM (inactive) | > 100 µM (inactive) | > 100 µM (inactive) | > 100 µM (inactive) | – | > 100 µM (inactive) | > 100 µM (inactive) | > 100 µM (inactive) | > 100 µM (inactive) | > 100 µM (inactive) | > 49.7 µM (inactive) | > 100 µM (inactive) | > 100 µM (inactive) | > 100 µM (inactive) | – | –
4 | C=C/C(C)=C/[C@H](C)C(=O)C[C@H](O)CC1CC(=O)NC(=O)C1 | 30.1 µM (inactive) | 30.9 µM (inactive) | – | 19 µM (inactive) | 28.9 µM (inactive) | 24.1 µM (inactive) | 18.7 µM (inactive) | 13.6 µM (inactive) | – | 48.9 µM (inactive) | > 41.9 µM (inactive) | 31.5 µM (inactive) | 34 µM (inactive) | 21.7 µM (inactive) | > 55.8 µM (inactive) | 58.9 µM (inactive) | 34.1 µM (inactive) | 2.86 µM (inactive) | – | –
5 | COc1ccc(C2C(C(=O)O)=C(COC(C)=O)Oc3cc4c(cc32)OCO4)cc1 (stereo not drawn) | > 100 µM (inactive) | – | – | > 100 µM (inactive) | – | > 100 µM (inactive) | > 100 µM (inactive) | > 100 µM (inactive) | > 100 µM (inactive) | > 100 µM (inactive) | > 100 µM (inactive) | > 100 µM (inactive) | > 100 µM (inactive) | > 100 µM (inactive) | > 100 µM (inactive) | – | > 100 µM (inactive) | 40.7 µM (inactive) | – | –
6 | Nc1nn(CC(O)CO)c(=O)s1 (stereo not drawn) | > 100 µM (inactive) | > 100 µM (inactive) | > 100 µM (inactive) | > 100 µM (inactive) | > 100 µM (inactive) | > 100 µM (inactive) | > 100 µM (inactive) | – | > 100 µM (inactive) | > 100 µM (inactive) | > 100 µM (inactive) | > 100 µM (inactive) | > 100 µM (inactive) | – | 64.6 µM (inactive) | > 100 µM (inactive) | > 100 µM (inactive) | > 100 µM (inactive) | – | –
7 | N/C(=N\O)N/N=C\c1cc([N+](=O)[O-])cc([N+](=O)[O-])c1O | 98.2 µM (inactive) | > 23.2 µM (inactive) | – | > 100 µM (inactive) | > 100 µM (inactive) | > 100 µM (inactive) | > 96.2 µM (inactive) | 5.66 µM (inactive) | – | 4.67 µM (inactive) | 25.5 µM (inactive) | 13.9 µM (inactive) | 11.4 µM (inactive) | > 100 µM (inactive) | – | > 30.5 µM (inactive) | 15.3 µM (inactive) | 40.8 µM (inactive) | – | –
8 | N#C/C(=C\c1cccc(O)c1O)C(N)=O | 39.5 µM (inactive) | 74.3 µM (inactive) | – | – | 38.4 µM (inactive) | 34.8 µM (inactive) | 57.5 µM (inactive) | 41.3 µM (inactive) | 26.6 µM (inactive) | 22.7 µM (inactive) | 28.8 µM (inactive) | 50.2 µM (inactive) | 58.5 µM (inactive) | 41.3 µM (inactive) | 9.57 µM (inactive) | > 100 µM (inactive) | 21.5 µM (inactive) | 31.4 µM (inactive) | 33.3 µM (inactive) | –
9 | C/C([O-])=C(/c1nc(-c2ccc([N+](=O)[O-])o2)no1)[n+]1cc(C)ccc1C | 11.9 µM (inactive) | 18.3 µM (inactive) | – | 10.2 µM (inactive) | 7.94 µM (inactive) | 58.6 µM (inactive) | 26.7 µM (inactive) | 14.3 µM (inactive) | – | 21.7 µM (inactive) | 35.6 µM (inactive) | 5.31 µM (inactive) | 9.79 µM (inactive) | > 100 µM (inactive) | 17.8 µM (inactive) | 21.8 µM (inactive) | 6.08 µM (inactive) | 7.48 µM (inactive) | – | –
10 | CCCCOP1(=O)C=CC(Cl)=C(C)C1 (stereo not drawn) | > 10 µM (inactive) | – | 15.3 µM (inactive) | 44.5 µM (inactive) | 12.4 µM (inactive) | 70.3 µM (inactive) | 51.9 µM (inactive) | 68.7 µM (inactive) | 19 µM (inactive) | 41.8 µM (inactive) | – | 20.4 µM (inactive) | 22 µM (inactive) | 23.2 µM (inactive) | 23.3 µM (inactive) | – | 33 µM (inactive) | 19.2 µM (inactive) | 22.3 µM (inactive) | –
11 | COC1C=CC(O)C(CO)O1 (stereo not drawn) | > 100 µM (inactive) | – | > 100 µM (inactive) | – | > 100 µM (inactive) | > 100 µM (inactive) | – | – | > 100 µM (inactive) | > 100 µM (inactive) | > 100 µM (inactive) | > 100 µM (inactive) | > 100 µM (inactive) | > 100 µM (inactive) | > 100 µM (inactive) | > 100 µM (inactive) | – | > 100 µM (inactive) | – | –
12 | CSc1nc2c(ncn2C2OCC(O)C(O)C2O)c(=O)n1C (stereo not drawn) | > 100 µM (inactive) | > 100 µM (inactive) | – | > 100 µM (inactive) | > 100 µM (inactive) | > 100 µM (inactive) | > 100 µM (inactive) | – | – | > 100 µM (inactive) | > 100 µM (inactive) | > 100 µM (inactive) | > 100 µM (inactive) | > 100 µM (inactive) | 73.6 µM (inactive) | > 100 µM (inactive) | > 100 µM (inactive) | > 100 µM (inactive) | – | –
13 | CCOC(=O)c1ccc(N[C@@H]2c3cc4c(cc3C(c3cc(OC)c(O)c(OC)c3)[C@H]3C(=O)OCC32)OCO4)cc1 (stereo partly drawn) | 3.57 µM (inactive) | 0.244 µM (active) | 0.0474 µM (active) | – | 2.63 µM (inactive) | 1.77 µM (inactive) | 0.36 µM (active) | 0.251 µM (active) | 0.131 µM (active) | 0.769 µM (active) | 0.955 µM (active) | 0.475 µM (active) | 1.94 µM (inactive) | 1.1 µM (active) | 1.21 µM (inactive) | 1.56 µM (inactive) | 3.15 µM (inactive) | 0.726 µM (active) | – | 3.07 µM (inactive)
14 | COc1cc(C2c3cc4c(cc3[C@@H](Nc3cccc(C(C)=O)c3)C3COC(=O)[C@H]23)OCO4)cc(OC)c1O (stereo partly drawn) | 1.05 µM (active) | 0.236 µM (active) | – | 1 µM (active) | 2.65 µM (inactive) | 2.21 µM (inactive) | 0.236 µM (active) | 0.108 µM (active) | – | 0.291 µM (active) | 0.71 µM (active) | 0.2 µM (active) | 1.1 µM (active) | 0.478 µM (active) | 0.838 µM (active) | 2.1 µM (inactive) | 1.86 µM (inactive) | 0.573 µM (active) | – | –
15 | COc1cc(C2c3cc4c(cc3[C@@H](Nc3ccc(N5CCOCC5)cc3)C3COC(=O)[C@H]23)OCO4)cc(OC)c1O (stereo partly drawn) | – | 1.01 µM (active) | – | 0.977 µM (active) | 2.46 µM (inactive) | 1.97 µM (inactive) | 0.2 µM (active) | 0.4 µM (active) | – | 1.85 µM (inactive) | 0.738 µM (active) | 1.5 µM (inactive) | 1.65 µM (inactive) | 0.773 µM (active) | 5.19 µM (inactive) | 1.82 µM (inactive) | 2 µM (inactive) | 0.392 µM (active) | – | –
16 | CN(C(=O)c1ccc(OCCCC(=O)O)c(Cl)c1Cl)C1CCCC1 | > 100 µM (inactive) | > 89.5 µM (inactive) | – | > 73.1 µM (inactive) | > 79.8 µM (inactive) | > 100 µM (inactive) | > 100 µM (inactive) | > 28.6 µM (inactive) | – | > 60 µM (inactive) | > 100 µM (inactive) | > 100 µM (inactive) | > 100 µM (inactive) | 45.3 µM (inactive) | 80.4 µM (inactive) | > 100 µM (inactive) | > 100 µM (inactive) | 28.4 µM (inactive) | – | –
17 | CCCCCCCCCCCC1=C(O)C(=O)C=C(O)C1=O [EMBELIN] | 6.17 µM (inactive) | 5.75 µM (inactive) | – | 4.58 µM (inactive) | 5.11 µM (inactive) | 7.31 µM (inactive) | 16.3 µM (inactive) | 4.26 µM (inactive) | – | 5.56 µM (inactive) | 8.43 µM (inactive) | 18.3 µM (inactive) | 8.15 µM (inactive) | 4.09 µM (inactive) | 6.31 µM (inactive) | 8.83 µM (inactive) | 7.5 µM (inactive) | – | – | –
